According to PubChem BioAssay (NCI):
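How tested: cells in 96-well plates exposed to compound for 48 hours at five concentrations. GI50: concentration for 50% inhibition of growth. TGI marks complete inhibition of growth.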

Experiments:
Assay in all cases: NCI-60 cell line screen, 48 h
SR leukemia = system: SR leukemia
U251 CNS = system: U251 CNS
SNB-19 CNS = system: SNB-19 CNS
CCRF-CEM leukemia = system: CCRF-CEM leukemia
UACC-62 melanoma = system: UACC-62 melanoma
SF-268 CNS = system: SF-268 CNS
SN12C renal = system: SN12C renal
A498 renal = system: A498 renal
SK-OV-3 ovarian = system: SK-OV-3 ovarian
T-47D breast = system: T-47D breast

COc1ccc(C2=NN(C(C)=O)c3nc4ccccc4nc3O2)cc1
TGI (SR leukemia): > 100 µM | TGI (U251 CNS): 61.8 µM | TGI (SNB-19 CNS): 87.7 µM | TGI (CCRF-CEM leukemia): > 100 µM | TGI (UACC-62 melanoma): > 100 µM | TGI (SF-268 CNS): > 100 µM | TGI (SN12C renal): > 100 µM

COc1ccc(OC)c(-c2cc(-c3ccc(Cl)cc3)nn2-c2ccccc2)c1
GI50 (SR leukemia): 4.34 µM | TGI (SR leukemia): > 100 µM | GI50 (CCRF-CEM leukemia): 8.57 µM | TGI (CCRF-CEM leukemia): > 100 µM | GI50 (UACC-62 melanoma): 11.2 µM | TGI (UACC-62 melanoma): 55.3 µM | GI50 (SF-268 CNS): 18.2 µM | TGI (SF-268 CNS): 57.8 µM | GI50 (A498 renal): 6.57 µM | TGI (A498 renal): 59.7 µM | GI50 (SN12C renal): 23.9 µM | TGI (SN12C renal): 69.6 µM

COc1nc(NC2OC(COC(C)=O)C(OC(C)=O)C(OC(C)=O)C2OC(C)=O)c(N=C(C)C(C)=O)c(=O)n1C (stereo not drawn)
TGI (U251 CNS): > 100 µM | TGI (SNB-19 CNS): > 100 µM | TGI (CCRF-CEM leukemia): > 100 µM | TGI (SK-OV-3 ovarian): > 100 µM | TGI (UACC-62 melanoma): > 100 µM | TGI (A498 renal): > 100 µM | TGI (SN12C renal): > 100 µM

CCCCNC(=O)Oc1ccc(/C(=C(\C)c2ccc(OC)cc2)c2ccc(OCCN3CCCCC3)cc2)cc1
GI50 (SR leukemia): 1.59 µM | TGI (SR leukemia): 4.63 µM | GI50 (T-47D breast): 1.24 µM | TGI (T-47D breast): 6.37 µM | GI50 (U251 CNS): 2.49 µM | TGI (U251 CNS): 5.99 µM | GI50 (SNB-19 CNS): 3.95 µM | TGI (SNB-19 CNS): 15.2 µM | GI50 (CCRF-CEM leukemia): 2.81 µM | TGI (CCRF-CEM leukemia): 9.78 µM | GI50 (SK-OV-3 ovarian): 7.63 µM | TGI (SK-OV-3 ovarian): 25 µM | GI50 (UACC-62 melanoma): 2.06 µM | TGI (UACC-62 melanoma): 4.1 µM | GI50 (SF-268 CNS): 5.55 µM | TGI (SF-268 CNS): 20.5 µM | GI50 (SN12C renal): 2.21 µM | TGI (SN12C renal): 6.01 µM

Oc1ccc(Br)cc1C=NC1CCCCC1
TGI (T-47D breast): 75.5 µM | TGI (U251 CNS): > 100 µM | TGI (SNB-19 CNS): > 100 µM | TGI (CCRF-CEM leukemia): > 100 µM | TGI (SK-OV-3 ovarian): > 100 µM | TGI (UACC-62 melanoma): > 100 µM | TGI (SF-268 CNS): > 100 µM | TGI (A498 renal): > 100 µM | TGI (SN12C renal): 19.5 µM

Cn1c(=O)nc2n(-c3ccc(F)c(F)c3)c3ccccc3nc-2c1=O
TGI (U251 CNS): 36.2 µM | TGI (SNB-19 CNS): 44.9 µM | TGI (CCRF-CEM leukemia): 42.2 µM | TGI (SK-OV-3 ovarian): > 100 µM | TGI (UACC-62 melanoma): 5.47 µM | TGI (SF-268 CNS): > 100 µM | TGI (A498 renal): > 100 µM | TGI (SN12C renal): 53.8 µM

Cc1cccc2c(=O)c3c(sc12)c(NCCCN)nc1ccccc13
GI50 (T-47D breast): 1.5 µM | TGI (T-47D breast): 3.44 µM | GI50 (U251 CNS): 1.51 µM | TGI (U251 CNS): 3.01 µM | GI50 (CCRF-CEM leukemia): 1.32 µM | TGI (CCRF-CEM leukemia): 3.13 µM | GI50 (UACC-62 melanoma): 1.6 µM | TGI (UACC-62 melanoma): 3.06 µM | GI50 (SF-268 CNS): 1.53 µM | TGI (SF-268 CNS): 3.17 µM | GI50 (A498 renal): 1.88 µM | TGI (A498 renal): 5.64 µM | GI50 (SN12C renal): 1.47 µM | TGI (SN12C renal): 2.93 µM

CN1CCN(c2ccncc2S(=O)(=O)N2CCN(C)CC2)CC1
TGI (T-47D breast): > 100 µM | TGI (U251 CNS): > 100 µM | TGI (SNB-19 CNS): > 100 µM | TGI (SK-OV-3 ovarian): > 100 µM | TGI (UACC-62 melanoma): > 100 µM | TGI (SF-268 CNS): > 100 µM | TGI (A498 renal): > 100 µM

CSc1ccc(Cc2cc(C(C)(C)C)cc(C(C)(C)C)c2O)cc1
TGI (SR leukemia): 24.7 µM | TGI (U251 CNS): 28.6 µM | TGI (SNB-19 CNS): 29.9 µM | TGI (CCRF-CEM leukemia): 40 µM | TGI (SK-OV-3 ovarian): 42.4 µM | TGI (UACC-62 melanoma): 29.2 µM | TGI (SF-268 CNS): 29.7 µM | TGI (A498 renal): 29.3 µM | TGI (SN12C renal): 28.6 µM

Cc1ccccc1SC(/C=C/NNC1=NC(c2ccccc2)C(c2ccccc2)=NN1)c1ccccc1 (stereo not drawn)
TGI (U251 CNS): 64.7 µM | TGI (SNB-19 CNS): > 100 µM | TGI (CCRF-CEM leukemia): 94.4 µM | TGI (SK-OV-3 ovarian): 45.3 µM | TGI (UACC-62 melanoma): > 100 µM | TGI (SF-268 CNS): 58.7 µM | TGI (A498 renal): 64.2 µM | TGI (SN12C renal): > 100 µM

O=[N+]([O-])c1cc(I)cc(/C=N/NS(=O)(=O)c2ccc(F)cc2)c1O
TGI (SR leukemia): 46.2 µM | TGI (U251 CNS): 59.9 µM | TGI (SNB-19 CNS): > 100 µM | TGI (CCRF-CEM leukemia): 53.9 µM | TGI (SK-OV-3 ovarian): 70.2 µM | TGI (UACC-62 melanoma): 41.6 µM | TGI (SF-268 CNS): 61.5 µM | TGI (A498 renal): 91.6 µM | TGI (SN12C renal): 54.1 µM
